Results reported in ChEMBL document CHEMBL1201862, “PubChem BioAssay data set” (2004).
The source made the active and inactive calls.

What was measured:
Beta Lactamase = Beta Lactamase (Pseudomonas aeruginosa, UniProt Q932Y6); assay: beta-lactamase reporter inhibitor potency, dose response, artefact control for TLR9-MyD88 binding inhibitor project, BLA reporter cells, FRET fluorescence (AID 588341); assay type: cell-based;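 also: cell based assay in CHO-K1 cells stably expressing beta-lactamase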
[1] = HepG2 cell cytotoxicity, dose response, cytotoxicity control for Shn3 inhibitor project, CellTiter-Glo, cherry-picked (AID 624134); assay type: functional, cell-based
CHO = assay: cytotoxicity in TLR9-MyD88 CHO cells, dose response, cytotoxicity control for TLR9-MyD88 binding inhibitor project, cell-based, luminescence (AID 588339); assay type: functional, hamster; conditions: Cricetulus griseus;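 also: CHO cells stably coexpressing TLR9 and MyD88 fusions from primary screen; compound exposure lasted 48 hours before viability readout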
[2] = Shn3 3'UTR reporter inhibitors, dose response, cell-based, Clone20 osteoblasts, firefly luciferase, cherry-picked (AID 624132); assay type: functional;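 also: firefly luciferase luminescence from reporter carrying the Shn3 3'UTR in osteoblasts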
[3] = molecular target: Protein disulfide-isomerase (Homo sapiens, UniProt P07237); assay: PDI inhibitors, insulin aggregation turbidity, dose response, biochemical, absorbance, cherry-picked samples (AID 602350); assay type: functional
Chain of Protein disulfide-isomerase (P07237 whole entry): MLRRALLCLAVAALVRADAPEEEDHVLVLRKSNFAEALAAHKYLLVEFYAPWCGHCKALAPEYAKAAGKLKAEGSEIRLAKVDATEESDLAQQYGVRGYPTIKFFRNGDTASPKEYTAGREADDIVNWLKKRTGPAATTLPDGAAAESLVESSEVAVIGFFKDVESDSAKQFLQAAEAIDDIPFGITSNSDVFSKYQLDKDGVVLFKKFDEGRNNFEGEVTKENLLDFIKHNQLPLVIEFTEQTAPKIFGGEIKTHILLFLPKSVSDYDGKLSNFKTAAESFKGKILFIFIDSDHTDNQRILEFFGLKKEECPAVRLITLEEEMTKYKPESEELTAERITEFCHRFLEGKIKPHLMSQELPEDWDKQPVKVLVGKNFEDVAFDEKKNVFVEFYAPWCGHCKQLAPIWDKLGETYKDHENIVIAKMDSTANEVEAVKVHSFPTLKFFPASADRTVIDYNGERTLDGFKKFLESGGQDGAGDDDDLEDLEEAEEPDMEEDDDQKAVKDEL

[4] = inhibitors of firefly luciferase expression or activity, dose response, H4 neuroglioma cells, luminescence (AID 1990); assay type: functional, cell-based
Fatty acid synthase [5] = molecular target: T1, Fatty acid synthase (Homo sapiens, UniProt P49327); assay: FAS thioesterase domain inhibitors, dose response, biochemical, endpoint fluorescence intensity, uHTS hits (AID 624327); assay type: functional;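 also: fluorescence from hydrolysis of an O-methyl fluorescein acyl ester substrate by the enzyme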
T1 sequence (P49327 whole entry, the tested form may be a part): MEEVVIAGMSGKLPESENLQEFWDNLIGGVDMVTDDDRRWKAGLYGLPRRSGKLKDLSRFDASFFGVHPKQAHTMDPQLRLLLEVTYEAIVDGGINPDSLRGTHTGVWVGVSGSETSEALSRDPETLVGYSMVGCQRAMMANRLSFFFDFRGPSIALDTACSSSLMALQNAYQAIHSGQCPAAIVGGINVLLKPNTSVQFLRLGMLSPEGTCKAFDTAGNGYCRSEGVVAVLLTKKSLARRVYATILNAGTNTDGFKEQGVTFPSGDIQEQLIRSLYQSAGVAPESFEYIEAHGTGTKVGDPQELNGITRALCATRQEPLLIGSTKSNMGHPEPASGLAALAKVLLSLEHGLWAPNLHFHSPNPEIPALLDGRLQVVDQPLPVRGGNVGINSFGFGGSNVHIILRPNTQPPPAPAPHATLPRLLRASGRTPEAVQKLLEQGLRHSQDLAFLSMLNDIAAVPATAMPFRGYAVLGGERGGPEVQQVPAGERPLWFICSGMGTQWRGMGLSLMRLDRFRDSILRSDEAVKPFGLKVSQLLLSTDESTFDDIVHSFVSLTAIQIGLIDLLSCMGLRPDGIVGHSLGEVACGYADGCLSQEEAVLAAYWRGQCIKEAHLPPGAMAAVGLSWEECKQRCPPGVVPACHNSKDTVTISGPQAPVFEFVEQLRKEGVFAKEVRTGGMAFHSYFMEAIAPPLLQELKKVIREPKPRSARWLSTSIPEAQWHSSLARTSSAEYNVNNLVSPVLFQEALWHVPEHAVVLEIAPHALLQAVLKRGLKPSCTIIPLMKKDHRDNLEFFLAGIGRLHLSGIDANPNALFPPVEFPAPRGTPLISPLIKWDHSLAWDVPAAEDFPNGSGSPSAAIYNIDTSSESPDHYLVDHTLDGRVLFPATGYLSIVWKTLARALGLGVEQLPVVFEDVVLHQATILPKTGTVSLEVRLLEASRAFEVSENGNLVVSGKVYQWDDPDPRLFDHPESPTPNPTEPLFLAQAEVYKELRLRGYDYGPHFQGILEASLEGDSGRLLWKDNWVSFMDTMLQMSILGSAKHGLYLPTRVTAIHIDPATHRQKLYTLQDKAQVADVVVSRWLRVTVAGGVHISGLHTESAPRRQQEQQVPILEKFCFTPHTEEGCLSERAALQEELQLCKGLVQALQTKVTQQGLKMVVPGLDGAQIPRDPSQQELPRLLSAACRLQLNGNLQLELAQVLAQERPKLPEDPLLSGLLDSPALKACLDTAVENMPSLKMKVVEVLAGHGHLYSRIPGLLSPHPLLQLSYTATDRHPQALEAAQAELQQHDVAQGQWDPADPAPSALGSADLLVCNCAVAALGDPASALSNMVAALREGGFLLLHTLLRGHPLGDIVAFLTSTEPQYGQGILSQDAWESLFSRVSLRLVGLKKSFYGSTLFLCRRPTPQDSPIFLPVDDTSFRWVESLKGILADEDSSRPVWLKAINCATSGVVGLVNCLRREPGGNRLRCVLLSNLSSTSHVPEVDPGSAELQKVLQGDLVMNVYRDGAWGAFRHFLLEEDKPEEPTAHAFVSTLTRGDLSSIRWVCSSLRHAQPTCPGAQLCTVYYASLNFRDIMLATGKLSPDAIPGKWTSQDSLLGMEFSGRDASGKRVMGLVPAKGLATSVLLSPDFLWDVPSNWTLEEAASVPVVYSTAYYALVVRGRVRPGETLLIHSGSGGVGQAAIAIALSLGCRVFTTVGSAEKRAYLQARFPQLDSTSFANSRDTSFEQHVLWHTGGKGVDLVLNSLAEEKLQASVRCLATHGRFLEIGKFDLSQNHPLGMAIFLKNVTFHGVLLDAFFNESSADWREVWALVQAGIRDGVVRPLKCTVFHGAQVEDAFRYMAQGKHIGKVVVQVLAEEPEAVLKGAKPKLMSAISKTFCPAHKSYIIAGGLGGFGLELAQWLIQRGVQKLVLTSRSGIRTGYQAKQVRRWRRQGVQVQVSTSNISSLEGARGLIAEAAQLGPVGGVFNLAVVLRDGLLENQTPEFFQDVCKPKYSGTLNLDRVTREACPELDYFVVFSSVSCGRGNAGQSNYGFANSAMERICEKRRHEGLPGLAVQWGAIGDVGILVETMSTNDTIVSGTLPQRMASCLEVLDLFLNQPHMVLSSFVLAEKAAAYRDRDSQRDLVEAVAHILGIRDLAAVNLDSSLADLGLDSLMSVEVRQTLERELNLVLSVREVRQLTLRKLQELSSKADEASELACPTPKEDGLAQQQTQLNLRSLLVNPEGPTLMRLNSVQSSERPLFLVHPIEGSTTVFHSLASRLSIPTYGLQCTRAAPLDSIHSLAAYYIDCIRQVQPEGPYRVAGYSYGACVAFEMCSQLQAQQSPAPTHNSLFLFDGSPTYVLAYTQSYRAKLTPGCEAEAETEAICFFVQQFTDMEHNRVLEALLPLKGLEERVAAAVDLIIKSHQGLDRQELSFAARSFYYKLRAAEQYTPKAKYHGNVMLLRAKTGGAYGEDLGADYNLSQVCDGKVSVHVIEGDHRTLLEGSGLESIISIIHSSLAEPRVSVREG

[6] = Luminescence Cell-Based Dose Response HTS to Identify Inhibitors of 5'UTR Stem-Loop Driven Prion Protein mRNA Translation in H4 Neuroglioblastoma Cells. [Related pubchem assays: 1827 (Project Summary), 1813 (Primary HTS)]; assay type: functional
[7] = inhibitors of SNCA 5'UTR-driven reporter translation, confirmation, H4 neuroglioma cells, luminescence (AID 1988); assay type: functional, cell-based
Fatty acid synthase [8] = molecular target: T1, Fatty acid synthase; assay: FAS thioesterase domain inhibitors, dose response, biochemical, kinetic fluorescence intensity (AID 624326); assay type: functional;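 also: rate of fluorescence rise from hydrolysis of a fluorogenic O-methyl fluorescein ester substrate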
[9] = molecular target: DNA (cytosine-5)-methyltransferase 1 (Homo sapiens, UniProt P26358); assay: DNMT1 methyltransferase inhibitors, confirmation, biochemical, fluorescent molecular beacon (AID 602386); assay type: functional
Phospholipase A2 = Phospholipase A2 (Homo sapiens, UniProt P04054); assay type: functional;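 also: confirmatory dose-response counterscreen on phospholipase A2, testing hits that came from an ultra-high-throughput screen for ATG4B inhibitors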
Chain of Phospholipase A2 (P04054 whole entry): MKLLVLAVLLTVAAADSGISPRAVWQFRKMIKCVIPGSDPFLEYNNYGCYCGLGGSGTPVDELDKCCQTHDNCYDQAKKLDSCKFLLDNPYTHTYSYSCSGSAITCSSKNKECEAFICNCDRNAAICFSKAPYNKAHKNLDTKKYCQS

Hexokinase HKDC1 = molecular target: T2, Hexokinase HKDC1 (Homo sapiens, UniProt Q2TB90); assay: HKDC1 hexokinase inhibitors, dose response, biochemical, W721R variant (AID 504729); assay type: functional
T2 sequence (Q2TB90 whole entry): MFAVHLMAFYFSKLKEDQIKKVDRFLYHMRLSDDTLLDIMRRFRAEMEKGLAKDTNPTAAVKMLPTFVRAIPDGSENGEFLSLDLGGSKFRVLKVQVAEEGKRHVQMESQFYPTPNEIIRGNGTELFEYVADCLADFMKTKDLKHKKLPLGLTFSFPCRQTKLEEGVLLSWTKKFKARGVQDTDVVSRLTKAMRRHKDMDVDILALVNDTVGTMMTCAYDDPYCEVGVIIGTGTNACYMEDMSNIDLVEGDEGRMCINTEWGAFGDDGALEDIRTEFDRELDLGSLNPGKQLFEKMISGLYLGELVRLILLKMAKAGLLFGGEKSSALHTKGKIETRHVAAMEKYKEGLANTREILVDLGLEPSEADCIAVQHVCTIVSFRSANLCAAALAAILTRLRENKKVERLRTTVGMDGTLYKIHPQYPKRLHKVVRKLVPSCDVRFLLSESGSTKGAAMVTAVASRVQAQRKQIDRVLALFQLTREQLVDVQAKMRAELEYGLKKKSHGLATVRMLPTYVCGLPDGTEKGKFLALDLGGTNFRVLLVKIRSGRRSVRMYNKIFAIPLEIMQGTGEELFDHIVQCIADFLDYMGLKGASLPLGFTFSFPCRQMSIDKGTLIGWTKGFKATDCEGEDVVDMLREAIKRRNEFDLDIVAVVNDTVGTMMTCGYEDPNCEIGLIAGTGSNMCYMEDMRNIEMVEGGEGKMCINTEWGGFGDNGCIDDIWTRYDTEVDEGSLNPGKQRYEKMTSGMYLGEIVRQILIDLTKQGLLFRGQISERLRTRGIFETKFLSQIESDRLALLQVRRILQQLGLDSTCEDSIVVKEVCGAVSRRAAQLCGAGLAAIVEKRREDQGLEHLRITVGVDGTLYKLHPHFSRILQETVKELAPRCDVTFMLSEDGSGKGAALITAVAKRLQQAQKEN

Large T antigen = Large T antigen (Simian virus 40, UniProt P03070); assay type: functional, Betapolyomavirus macacae;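 also: Confirmatory-stage PubChem screen for compounds that inhibit SV40 T antigen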
Chain of Large T antigen (P03070 whole entry): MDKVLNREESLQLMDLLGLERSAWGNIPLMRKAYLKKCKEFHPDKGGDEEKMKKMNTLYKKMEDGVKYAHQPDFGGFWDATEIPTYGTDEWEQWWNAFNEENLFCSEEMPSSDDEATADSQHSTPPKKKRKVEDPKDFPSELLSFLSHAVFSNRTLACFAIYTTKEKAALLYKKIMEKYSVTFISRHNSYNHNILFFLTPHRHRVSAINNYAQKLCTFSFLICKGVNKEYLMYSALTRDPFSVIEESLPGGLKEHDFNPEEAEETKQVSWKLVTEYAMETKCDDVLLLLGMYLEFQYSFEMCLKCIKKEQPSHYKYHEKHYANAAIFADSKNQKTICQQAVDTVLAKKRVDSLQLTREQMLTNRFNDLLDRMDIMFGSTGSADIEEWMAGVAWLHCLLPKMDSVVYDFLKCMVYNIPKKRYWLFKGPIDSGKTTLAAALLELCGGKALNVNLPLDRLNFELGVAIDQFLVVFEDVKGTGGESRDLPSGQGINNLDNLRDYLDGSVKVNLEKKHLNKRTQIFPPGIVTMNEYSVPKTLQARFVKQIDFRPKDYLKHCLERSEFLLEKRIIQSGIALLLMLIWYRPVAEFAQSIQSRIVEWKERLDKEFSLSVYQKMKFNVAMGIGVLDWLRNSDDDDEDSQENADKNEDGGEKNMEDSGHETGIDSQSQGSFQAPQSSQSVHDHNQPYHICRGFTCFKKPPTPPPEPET

Cysteine protease ATG4B = molecular target: T3, Cysteine protease ATG4B (Homo sapiens, UniProt Q9Y4P1); assay type: functional;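 also: Fluorescence-based dose-response confirmation assay measuring inhibition of ATG4B activity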
T3 sequence (Q9Y4P1 whole entry): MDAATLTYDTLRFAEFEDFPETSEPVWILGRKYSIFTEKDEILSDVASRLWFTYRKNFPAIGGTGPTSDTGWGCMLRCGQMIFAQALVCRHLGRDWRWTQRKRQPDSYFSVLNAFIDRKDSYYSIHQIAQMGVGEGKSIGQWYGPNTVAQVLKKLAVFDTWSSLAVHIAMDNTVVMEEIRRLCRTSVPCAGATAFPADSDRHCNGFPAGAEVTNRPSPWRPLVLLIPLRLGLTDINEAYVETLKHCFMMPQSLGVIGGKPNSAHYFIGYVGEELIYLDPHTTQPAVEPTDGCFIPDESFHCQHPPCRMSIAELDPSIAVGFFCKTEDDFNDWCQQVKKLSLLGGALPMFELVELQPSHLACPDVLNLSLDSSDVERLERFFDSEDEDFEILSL

Chain of Beta Lactamase (Q932Y6 whole entry): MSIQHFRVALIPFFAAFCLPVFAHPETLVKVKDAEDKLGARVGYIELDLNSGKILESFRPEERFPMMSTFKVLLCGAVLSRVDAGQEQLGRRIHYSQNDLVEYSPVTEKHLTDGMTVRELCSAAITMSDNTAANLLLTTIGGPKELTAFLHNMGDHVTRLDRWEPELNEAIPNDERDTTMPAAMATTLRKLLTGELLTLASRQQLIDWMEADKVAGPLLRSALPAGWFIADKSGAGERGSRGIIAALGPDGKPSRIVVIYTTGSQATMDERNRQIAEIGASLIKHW

## O=C(NCc1ccccc1C(F)(F)F)c1cccc2c1C(=O)c1ccc(N3CCC(N4CCCCC4)CC3)cc1S2(=O)=O
Beta Lactamase
  IC50: 5.89 µM (active)
[1]
  AC50: 9.77 µM (active)
CHO
  IC50: 8.71 µM (active)
[2]
  AC50: 21.2 µM (active)

## CCN1C(=O)C2C(c3ccccc3F)NC(Cc3ccc(O)cc3)(C(=O)OC)C2C1=O (stereo not drawn)
[3]
  AC50: 10.2 µM (active)

## Cc1ccc(C(=O)N/C(=C/c2ccc(-c3ccc([N+](=O)[O-])cc3)o2)C(=O)NCCCN(C)C)cc1
[4]
  EC50: > 120 µM (not active)
Beta Lactamase
  IC50: 6.55 µM (active)
Fatty acid synthase [5]
  IC50: 13.8 µM (active)
CHO
  IC50: 22.9 µM (inactive)
[6]
  EC50: > 120 µM (not active)
[7]
  EC50: > 120 µM (not active)
Fatty acid synthase [8]
  IC50: 5.71 µM (active)

## CCN1CC2(COC(=O)c3ccccc3N)CCC(OC)C34C5CC6C(OC)CC(O)(C5C6OC)C(O)(C(OC)C23)C14 (stereo not drawn)
[3]
  AC50: 19.5 µM (active)

## Cc1cc(/C=C2\C(=O)NC(=O)N(c3ccc(Cl)cc3)C2=O)c(C)n1-c1sc2c(c1C#N)CCCC2
[9]
  IC50: 9.52 µM (active)
Phospholipase A2
  IC50: 14.1 µM (active)
Hexokinase HKDC1
  IC50: 10.8 µM (active)
Large T antigen
  IC50: 17.2 µM (active)
Cysteine protease ATG4B
  IC50: 14.7 µM (active)
